Laboratory results taken from PubChem BioAssay (NCI).
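Five concentrations, 48 hours, 96-well plates. GI50 = concentration required for 50% inhibition of growth. The concentration for full growth arrest is given as TGI.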

Columns and labels:
Experiment in all cases: DTP human tumour cell line panel, 48 h
SNB-75 CNS = system: SNB-75 CNS
SK-MEL-5 melanoma = system: SK-MEL-5 melanoma
NCI-H460 lung = system: NCI-H460 lung
MCF7 breast = system: MCF7 breast
NCI-H522 lung = system: NCI-H522 lung
ACHN renal = system: ACHN renal
UACC-62 melanoma = system: UACC-62 melanoma
SK-OV-3 ovarian = system: SK-OV-3 ovarian
SN12C renal = system: SN12C renal
OVCAR-8 ovarian = system: OVCAR-8 ovarian

## COC(=O)Nc1nc2ccc(Oc3cccc(NC(=O)Nc4cc(C(F)(F)F)ccc4F)c3)cc2[nH]1
SNB-75 CNS
  GI50: 8.53 µM
  TGI: > 25 µM
SK-MEL-5 melanoma
  GI50: 5.97 µM
  TGI: > 17.4 µM
NCI-H460 lung
  GI50: 11.4 µM
  TGI: > 25 µM
MCF7 breast
  GI50: 4.45 µM
  TGI: > 7.9 µM
NCI-H522 lung
  GI50: 5.73 µM
  TGI: 20.6 µM
ACHN renal
  GI50: 24.4 µM
  TGI: > 25 µM
UACC-62 melanoma
  GI50: 8.11 µM
  TGI: > 25 µM
SK-OV-3 ovarian
  GI50: 10.2 µM
  TGI: > 25 µM
SN12C renal
  GI50: 15.1 µM
  TGI: > 25 µM
OVCAR-8 ovarian
  GI50: > 25 µM
  TGI: > 25 µM

## COc1ccc(C2=C(c3ccc(OC)c(OC)c3)C(=O)N3CCCC3C2)cc1 (centres undefined)
SNB-75 CNS
  GI50: 16.6 µM
  TGI: > 72.9 µM
SK-MEL-5 melanoma
  GI50: 9.03 µM
  TGI: > 72.6 µM
NCI-H460 lung
  GI50: 4.46 µM
  TGI: 23.3 µM
MCF7 breast
  GI50: 31.8 µM
  TGI: > 100 µM
NCI-H522 lung
  GI50: 15.7 µM
  TGI: > 100 µM
ACHN renal
  GI50: 34 µM
  TGI: > 100 µM
UACC-62 melanoma
  GI50: 13.2 µM
  TGI: > 100 µM
SK-OV-3 ovarian
  GI50: 30.5 µM
  TGI: > 100 µM
SN12C renal
  GI50: 45.7 µM
  TGI: > 100 µM
OVCAR-8 ovarian
  GI50: 21.7 µM
  TGI: > 100 µM

## COc1cc(/C=C/C(=O)c2ccc(F)cc2)ccc1OCCCN1CCN(CC(=O)Nc2ccc(Cl)cc2C(=O)c2ccccc2Cl)CC1
SNB-75 CNS
  GI50: 6.05 µM
  TGI: 34.1 µM
SK-MEL-5 melanoma
  GI50: 3.42 µM
  TGI: 14.7 µM
NCI-H460 lung
  GI50: 4.47 µM
  TGI: > 100 µM
MCF7 breast
  GI50: 2.69 µM
  TGI: 12.1 µM
NCI-H522 lung
  GI50: 14.4 µM
  TGI: 33.7 µM
ACHN renal
  GI50: 12.5 µM
  TGI: 32.3 µM
UACC-62 melanoma
  GI50: 10.4 µM
  TGI: 22.9 µM
SK-OV-3 ovarian
  GI50: 17.4 µM
  TGI: 44.2 µM
SN12C renal
  GI50: 12.7 µM
  TGI: 44.3 µM
OVCAR-8 ovarian
  GI50: 11.7 µM
  TGI: 68.1 µM

## Cn1cccc1-c1cc(-c2ccc(Br)cc2)[nH]c(=O)c1C#N
SNB-75 CNS
  GI50: 25.4 µM
  TGI: > 100 µM
SK-MEL-5 melanoma
  GI50: > 100 µM
  TGI: > 100 µM
NCI-H460 lung
  GI50: > 100 µM
  TGI: > 100 µM
MCF7 breast
  GI50: > 100 µM
  TGI: > 100 µM
NCI-H522 lung
  GI50: 82.1 µM
  TGI: > 100 µM
ACHN renal
  GI50: > 100 µM
  TGI: > 100 µM
UACC-62 melanoma
  GI50: 49.2 µM
  TGI: > 100 µM
SK-OV-3 ovarian
  GI50: > 100 µM
  TGI: > 100 µM
SN12C renal
  GI50: > 100 µM
  TGI: > 100 µM
OVCAR-8 ovarian
  GI50: > 100 µM
  TGI: > 100 µM

## CN(C)CC1CCC2=C(C1=O)C(c1ccc(Cl)c(Cl)c1)C1=C(CCC(CN(C)C)C1=O)O2 (centres undefined)
SNB-75 CNS
  GI50: 12.4 µM
  TGI: 25.8 µM
SK-MEL-5 melanoma
  GI50: 15.2 µM
  TGI: 29 µM
NCI-H460 lung
  GI50: 10.3 µM
  TGI: 24.6 µM
MCF7 breast
  GI50: 1.26 µM
  TGI: 3.27 µM
NCI-H522 lung
  GI50: 1.81 µM
  TGI: 3.37 µM
ACHN renal
  GI50: 14.3 µM
  TGI: 27.3 µM
UACC-62 melanoma
  GI50: 15.3 µM
  TGI: 28.7 µM
SK-OV-3 ovarian
  GI50: 13.3 µM
  TGI: 26 µM
SN12C renal
  GI50: 14 µM
  TGI: 30.2 µM
OVCAR-8 ovarian
  GI50: 4.25 µM
  TGI: 16 µM

## COC(=N)c1c(N)[n+]([O-])c2ccc(F)cc2[n+]1[O-]
SNB-75 CNS
  GI50: 96.2 µM
  TGI: > 100 µM
SK-MEL-5 melanoma
  GI50: 52.6 µM
  TGI: > 100 µM
NCI-H460 lung
  GI50: 58.1 µM
  TGI: > 100 µM
MCF7 breast
  GI50: 76.4 µM
  TGI: > 100 µM
NCI-H522 lung
  GI50: 54.7 µM
  TGI: > 100 µM
ACHN renal
  GI50: > 100 µM
  TGI: > 100 µM
UACC-62 melanoma
  GI50: > 100 µM
  TGI: > 100 µM
SK-OV-3 ovarian
  GI50: > 100 µM
  TGI: > 100 µM
SN12C renal
  GI50: > 100 µM
  TGI: > 100 µM
OVCAR-8 ovarian
  GI50: > 100 µM
  TGI: > 100 µM

## N#CSCc1ccc(Cl)c(CSC#N)c1
SNB-75 CNS
  GI50: 0.601 µM
  TGI: 59.9 µM
SK-MEL-5 melanoma
  GI50: 0.33 µM
  TGI: 12.2 µM
NCI-H460 lung
  GI50: 0.807 µM
  TGI: 12.6 µM
MCF7 breast
  GI50: 0.0465 µM
  TGI: 25.6 µM
NCI-H522 lung
  GI50: 0.0816 µM
  TGI: 9.06 µM
ACHN renal
  GI50: 0.0865 µM
  TGI: 22.6 µM
UACC-62 melanoma
  GI50: 2.53 µM
  TGI: 23.7 µM
SK-OV-3 ovarian
  GI50: 20 µM
  TGI: > 100 µM
SN12C renal
  GI50: 0.482 µM
  TGI: 40.7 µM
OVCAR-8 ovarian
  GI50: 0.298 µM
  TGI: > 73.6 µM

## C[C@]12CC[C@@H]3c4ccc(O)cc4CC[C@H]3[C@@H]1Cc1cnc(N)nc12
SNB-75 CNS
  GI50: 16.5 µM
  TGI: 42.9 µM
SK-MEL-5 melanoma
  GI50: 12.8 µM
  TGI: 26.1 µM
NCI-H460 lung
  GI50: 9.95 µM
  TGI: 24.9 µM
MCF7 breast
  GI50: 18.8 µM
  TGI: 47.7 µM
NCI-H522 lung
  GI50: 17.3 µM
  TGI: 41.2 µM
ACHN renal
  GI50: 21.1 µM
  TGI: 51.3 µM
UACC-62 melanoma
  GI50: 13.6 µM
  TGI: 27.2 µM
SK-OV-3 ovarian
  GI50: 12.8 µM
  TGI: 33.5 µM
SN12C renal
  GI50: 20.6 µM
  TGI: 44.2 µM
OVCAR-8 ovarian
  GI50: 92.9 µM
  TGI: > 100 µM

## COc1ccc(/C=C(\C(=O)NCc2cccnc2)S(=O)(=O)c2ccccc2)cc1OC
SNB-75 CNS
  GI50: 2.08 µM
  TGI: 7.84 µM
SK-MEL-5 melanoma
  GI50: 2.97 µM
  TGI: 10.9 µM
NCI-H460 lung
  GI50: 2.4 µM
  TGI: 6.67 µM
MCF7 breast
  GI50: 2.41 µM
  TGI: 12.7 µM
NCI-H522 lung
  GI50: 1.7 µM
  TGI: 4.61 µM
ACHN renal
  GI50: 3.16 µM
  TGI: 11.5 µM
UACC-62 melanoma
  GI50: 1.76 µM
  TGI: 3.74 µM
SK-OV-3 ovarian
  GI50: 4.1 µM
  TGI: 13.2 µM
SN12C renal
  GI50: 2.49 µM
  TGI: 9.15 µM
OVCAR-8 ovarian
  GI50: 3.84 µM
  TGI: 25.1 µM

## COc1ccc(CC(=O)c2ccc(O)cc2O)cc1
SNB-75 CNS
  GI50: > 100 µM
  TGI: > 100 µM
SK-MEL-5 melanoma
  GI50: 48.3 µM
  TGI: > 100 µM
NCI-H460 lung
  GI50: 56.1 µM
  TGI: > 100 µM
MCF7 breast
  GI50: > 100 µM
  TGI: > 100 µM
NCI-H522 lung
  GI50: 60.8 µM
  TGI: > 100 µM
ACHN renal
  GI50: > 100 µM
  TGI: > 100 µM
UACC-62 melanoma
  GI50: 93 µM
  TGI: > 100 µM
SK-OV-3 ovarian
  GI50: > 100 µM
  TGI: > 100 µM
SN12C renal
  GI50: 93.2 µM
  TGI: > 100 µM
OVCAR-8 ovarian
  GI50: > 100 µM
  TGI: > 100 µM

## Cc1[nH]c(=O)nc(Nc2ccc(Cl)cc2)c1C(=O)N1CCN(CCO)CC1
SNB-75 CNS
  GI50: 21.7 µM
  TGI: 52.3 µM
SK-MEL-5 melanoma
  GI50: > 100 µM
  TGI: > 100 µM
NCI-H460 lung
  GI50: > 100 µM
  TGI: > 100 µM
MCF7 breast
  GI50: > 100 µM
  TGI: > 100 µM
NCI-H522 lung
  GI50: 59.8 µM
  TGI: > 100 µM
ACHN renal
  GI50: > 100 µM
  TGI: > 100 µM
UACC-62 melanoma
  GI50: 94.8 µM
  TGI: > 100 µM
SK-OV-3 ovarian
  GI50: 29.8 µM
  TGI: 83.1 µM
SN12C renal
  GI50: > 100 µM
  TGI: > 100 µM
OVCAR-8 ovarian
  GI50: 72 µM
  TGI: > 100 µM

## CC(=O)[O][Sn]([CH2]c1ccccc1)([CH2]c1ccccc1)[CH2]c1ccccc1
SNB-75 CNS
  GI50: > 4.28 µM
  TGI: > 5.68 µM
SK-MEL-5 melanoma
  GI50: 4.15 µM
  TGI: > 6.51 µM
NCI-H460 lung
  GI50: > 10 µM
  TGI: > 10 µM
MCF7 breast
  GI50: > 10 µM
  TGI: > 10 µM
NCI-H522 lung
  GI50: > 3.86 µM
  TGI: > 7.23 µM
ACHN renal
  GI50: > 10 µM
  TGI: > 10 µM
UACC-62 melanoma
  GI50: > 10 µM
  TGI: > 10 µM
SK-OV-3 ovarian
  GI50: > 10 µM
  TGI: > 10 µM
SN12C renal
  GI50: > 10 µM
  TGI: > 10 µM
OVCAR-8 ovarian
  GI50: > 10 µM
  TGI: > 10 µM

## O1[As]2O[As]3O[As]1O[As](O2)O3
SNB-75 CNS
  GI50: 0.389 µM
  TGI: 3.34 µM
SK-MEL-5 melanoma
  GI50: 0.473 µM
  TGI: 1.75 µM
NCI-H460 lung
  GI50: 2.03 µM
MCF7 breast
  GI50: 0.388 µM
  TGI: 2.29 µM
NCI-H522 lung
  GI50: 0.256 µM
  TGI: 1.03 µM
ACHN renal
  GI50: 2.54 µM
  TGI: 11.2 µM
UACC-62 melanoma
  GI50: 0.574 µM
  TGI: 2.18 µM
SK-OV-3 ovarian
  GI50: 2.8 µM
  TGI: 7 µM
SN12C renal
  GI50: 0.881 µM
  TGI: 4.79 µM
OVCAR-8 ovarian
  GI50: 1.89 µM
  TGI: 13.6 µM
